Data taken from patent US20240041796A1, “ANTI-INFLAMMATORY COMPOSITION COMPRISING N-BENZYL-N-METHYLDECAN-1-AMINE OR A DERIVATIVE THEREOF AS AN ACTIVE INGREDIENT” (PUSAN NATIONAL UNIVERSITY INDUSTRY-UNIVERSITY COOPERATION …, priority 2022, published 2024).

Columns and labels:
[1] = test system: NF-KB P65 protein; assay: NF-KB P65 distribution in cytoplasm and nucleus of LPS-treated THP-1 cells, immunoblotting; format: cell-based, human; conditions: FIG. 2D
From the text: Moreover, the mononuclear THP-1 cell line treated with lipopolysaccharide (LPS) and BMDA/DMMA under the same conditions was partitioned into cytoplasmic and nuclear portions. Distribution of NF-KB P65 protein in the cytoplasm and nucleus was examined based on immunoblotting.

[2] = test system: male SD rats; assay: DNBS-induced colitis model, enema administration; format: in vivo, rat; conditions: for inflammatory response caused by DNBS / length of the large intestine (colon) / ulcer scab: 500 μL of 200 μg/mL through the anus for 5 days; for inflammatory response caused by DNBS: FIG. 3A-B; for production amount of CNIC-3 chemokine: ELISA of colon supernatant, FIG. 3E; for body weight lost due to the DNBS treatment: FIG. 3C; for length of the large intestine (colon) / ulcer scab: vs DNBS+PBS group; for macrophage peroxidase (MPO) activity in colon: vs DNBS+PBS-treated rat, FIG. 3D
Protocol: For experimental colitis, male SD rats (250 to 260 g) were fasted one day before developing colitis. A water bottle was prepared so that only water could be consumed by the rats. Then, after anesthesia of the rats, a rubber cannula is inserted into the anus, and a solution in which 48.0 mg DNBS was dissolved in 0.4 mL of 50% alcohol was injected thereto through the cannula. This process was repeated for 3 days.
From the 4th day since the DNBS was inserted, anesthesia of the rats was carried out, and then BMDA (FMJ-G0) and a derivative thereof (DMMA, FMJ-G4) were diluted with PBS, and then 500 μL of the diluted substance was injected at a concentration of 200 μg/mL thereto through the anus. This process was repeated for 5 days. In a control group, DMSO was diluted in PBS at the same concentration and then was injected in the same way for 5 days. Thereafter, on day 6, the rats were suffocated, and the large intestine was removed therefrom to evaluate a level of colitis according to a known method.
Moreover, a portion of the large intestine was removed, placed in a cell lysis buffer (20 mM Tris-HCl [pH 7.5], 150 mM NaCl, 1 mM EDTA, 1% Triton X-100, 0.5% SDS), and subjected to ultrasonic treatment. Centrifugation was carried out to collect only the supernatant. We quantified the protein, and performed immunoblotting thereon.
Further, a portion of the supernatant obtained after the centrifugation as prepared for immunoblotting was used to measure the amount of the chemokine CINC-3 (Cytokine-induced neutrophil chemoattractant) based on ELISA. Moreover, in order to measure the level of activity of macrophages infiltrated into the distal colon, a titer of MPO (Myeloperoxidase) was measured. The distal colon was pulverized in a supersonic pulverizing device, was centrifuged to obtain the supernatant. Then, hydrogen peroxide was added to the supernatant for decomposition. Change in absorbance was measured at 460 nm for 1 minute.

[3] = test system: Balb/C mice; assay: DNCB-induced atopic dermatitis model, cosmetic cream applied to the skin; format: in vivo, mouse; conditions: for DNCB-induced atopic dermatitis (level of dermatitis): cosmetic cream (0.3% active; Lidomax ointment 0.15%) applied to the back for 2 weeks, 9C; for DNCB-induced atopic dermatitis (level of dermatitis) / hair regrowth on the skin: FIG. 9A; for size of the (inguinal) lymph node: cosmetic cream (Lidomax ointment 0.15%) applied for 2 weeks, FIG. 9B, 9D; for hair regrowth on the skin: cosmetic cream applied for 2 weeks; for thickness of the dermis: hematoxylin-eosin stained skin sections, FIG. 10A-B; for phosphorylation level of JNK in skin / phosphorylation level of NF-KB in skin / phosphorylation level of p38MAPK in skin: immunoblotting, FIG. 11D; for phosphorylation level of JNK in skin / phosphorylation level of NF-KB in skin / phosphorylation level of p38MAPK in skin / concentration of IgE in the blood: vs control group; for amount of COX2 transcriptome in skin / amount of IL-1β transcriptome in skin / amount of IL-6 transcriptome in skin / amount of TNF-α transcriptome in skin / amount of iNOS transcriptome in skin: qRT-PCR, vs DNCB control, FIG. 11A-C; for concentration of IgE in the blood: serum ELISA, 2 weeks of treatment, FIG. 10D; for invasion of mast cells into the dermis: toluidine-blue staining, FIG. 10C
Protocol: Wed added 0.3 g of olive wax to 2 mL of soybean oil (Sigma-Aldrich) in a glass tube (15 ml), and put the tube in a 75° C. water-bath, and performed a double boiling thereon to melt the olive wax for 30 minutes while vortexing the tube at 10 minute interval. Under the same conditions, 7.7 ml of purified water was put into a 75° C. water-bath and heated the same for 30 minutes. Next, 7.5 ml of purified water was poured into the tube containing the olive wax and the mixture was stirred well via vortexing. Then, […] (0.3%) of each of BMDA and derivatives thereof (FMJ-G0, FMJ-G4, FMJ-G1, FMJ-G2, FMJ-G3) as synthesized in Examples 1 and 3 were added to the mixture, followed by stirring. The reaction product was cooled in ice and prepared in the form of a cosmetic cream.
In order to induce atopic dermatitis using 5-week-old Balb/C mice, hair on the back of the mouse was removed therefrom, and after one day, a 0.5% solution in which DNCB (2,4-dinitrochlorobenzne) is mixed with acetone and olive oil (3:1) was prepared, and then was applied thereon for 3 consecutive days by 150 μL per each day. Thereafter, the solution of the same concentration was applied to the back area from which the hair was removed twice a week and this process continued for 2 weeks. Further, to alleviate atopic dermatitis induced in this way, the cosmetic cream containing each of BMDA (FMJ-G0) and the derivatives thereof (FMJ-G4, FMJ-G1, FMJ-G2, FMJ-G3) of the present disclosure as prepared above was applied to the back of rats with the induced atopic dermatitis for 2 weeks, and then, changes in skin inflammation were examined.
The experimental results of FIG. 10A and FIG. 10B was obtained as follows as in FIG. 9. The skin tissue was removed from the back of the mouse in the group, and was placed fixedly in 10% formaldehyde for 48 hours, and paraffin pieces were made, and the pieces were thinly sliced so as to have a thickness of 4 μm and was subjected to hematoxylin-esoin staining. Then, whether the damaged skin tissue was recovered by each of BMDA (FMJ-G0) and DMMA (FMJ-G4) was examined using an optical microscope equipped with a Leica application (Leica Microsystems, Switzerland).
To this end, the atopic dermatitis is induced in FIG. 9, and on 2 weeks since the treatment with BMDA (FMJ-G0) and DMMA (FMJ-G4), blood (500 ul) is collected from the hepatic veins of the rats of the above groups, and left at room temperature for 30 minutes. Then, serum was separated and prepared via centrifugation, and then, the IgE concentration related to the allergic reaction was measured through ELISA using the serum thus prepared.
Anti-mouse IgE (Pharmingen, CA, USA) was diluted with PBS (pH 7.4) on a 96-well plate, 100 μL thereof was coated on each 96-well plate, and then left at 4° C. for 12 hours. The plate was washed with PBS containing 0.05% tween. Blocking was performed thereon for 1 hour with PBS containing 1% BSA, 5% sucrose, and 0.05% NaN3. Washing was performed thereon several times using washing buffer. Recombinant IgE and serum were added thereto, and reaction occurred at 37° C. for 2 hours, and each well was washed again, and biotinylated IgE (Pharmingen, CA, USA) was added thereto. Reaction occurred for 2 hours. After washing the well, avidin peroxidase was added thereto and reaction occurred at 37° C. for 30 minutes. Then, the well was washed and then, ABTS solution as a substrate was added thereto. Absorbance was measured at 405 nm using ELISA reader (Epoch2, Biotek, VT, USA).
FIG. 11 show data obtained as follows. The atopic dermatitis was induced as described in FIG. 9, and on 2 weeks since the treatment with BMDA or DMMA (FMJ-G0/G4), a portion of the skin tissue of the rats in the groups were put in Trisol solution and the tissue was crushed in a sonicator. […]

Structure (SMILES) | NF-KB expression and migration in the nucleus [1] | activity of the transcription factor NF-KB [1] | inflammatory response caused by DNBS [2] | production amount of CNIC-3 chemokine [2] | body weight lost due to the DNBS treatment [2] | length of the large intestine (colon) [2] | ulcer scab [2] | macrophage peroxidase (MPO) activity in colon [2] | DNCB-induced atopic dermatitis (level of dermatitis) [3] | size of the (inguinal) lymph node [3] | hair regrowth on the skin [3] | thickness of the dermis [3] | phosphorylation level of JNK in skin [3] | phosphorylation level of NF-KB in skin [3] | phosphorylation level of p38MAPK in skin [3] | amount of COX2 transcriptome in skin [3] | amount of IL-1β transcriptome in skin [3] | amount of IL-6 transcriptome in skin [3] | amount of TNF-α transcriptome in skin [3] | amount of iNOS transcriptome in skin [3] | other results
CCCCCCCCCCN(C)Cc1ccccc1 [BMDA, N-benzyl-N-methyldecan-1-amine] | inhibited | inhibited | significantly reduced | low | did not restore | no significant difference | much smaller | much lower | significantly alleviated | the same as that of the spleen | observed | significantly reduced | significantly lowered | significantly lowered | significantly lowered | markedly lowered | markedly lowered | markedly lowered | markedly lowered | markedly lowered | concentration of IgE in the blood [3]: significantly lower; invasion of mast cells into the dermis [3]: prevents
CCCCCCCCCCN(C)Cc1ccc(OC)cc1 [DMMA, Decyl-(4-methoxy-benzyl)-methyl-amine] | inhibited | inhibited | significantly reduced | low | did not restore | larger than that of the DNBS+PBS-treated rat group | reduced | much lower | significantly alleviated | the same as that of the spleen | observed | significantly reduced | significantly lowered | significantly lowered | significantly lowered | markedly lowered | markedly lowered | markedly lowered | markedly lowered | markedly lowered | concentration of IgE in the blood [3]: significantly lower; invasion of mast cells into the dermis [3]: prevents
